This note sets out measurements from patent US7141252B2, “Composition for the treatment of burns, sunburns, abrasions, ulcers and cutaneous irritation” (priority 2003, dated 2006).

Each structure is given as a SMILES string.

This test relates to burns. Put plainly: Treating burns with different combinations of the ingredients. Format: in vivo. Conditions: topical treatment of burns, comparison of ingredient combinations.

As to `OB(O)O` [boric acid], the healing of burns result is recorded as “appeared to advance healing without infection but only in a very limited fashion”.
